Calls of active or inactive are those of the source. The rule behind the calls is not given here.
Assays:
[1] = Tmax in Sprague-Dawley rat at 10 mg/kg, po; type: ADME, organism-based; conditions: in vivo
[2] = target: T1, Macrophage colony-stimulating factor 1 receptor (Homo sapiens, UniProt P07333); assay: Binding affinity to recombinant CSF-1R (unknown origin) assessed as dissociation rate constant by SPR analysis
MC-38 [3] = assay: Antitumor activity against mouse MC38 cells allografted in C57BL/6 mouse model assessed as reduction in tumor weight at 10 mg/kg, ip administered once daily for 14 days relative to control; type: functional; design: scale not given: the % may be the effect or the level left; conditions: time 14 day
[4] = Clearance in Sprague-Dawley rat at 1 mg/kg, iv; type: ADME, organism-based; conditions: in vivo
BMDM [5] = assay: Induction of repolarization of M2 like macrophage into M1 phenotype in female C57BL/6 mouse BMDM cells assessed as increase in Nos2 mRNA expression at 10 to 100 nM stimulated with mouse IL4/IL-13 for 24 hrs followed by compound addition and measured after 24 hrs by qPCR analysis; type: functional, cell-based; conditions: dose 10-100 nM
[6] = target: T2, Macrophage colony-stimulating factor 1 receptor (Mus musculus) (UniProt P09581); assay: Inhibition of CSF-1R signaling pathway activation in female C57BL/6 mouse BMDM cells assessed as reduction in AKT phosphorylation preincubated with compounds for 4 hrs followed by M-CSF stimulation and measured after 30 mins by Western blot analysis; type: cell-based; conditions: dose 10-100 nM, time 4.5 hrs
T2 sequence (whole entry): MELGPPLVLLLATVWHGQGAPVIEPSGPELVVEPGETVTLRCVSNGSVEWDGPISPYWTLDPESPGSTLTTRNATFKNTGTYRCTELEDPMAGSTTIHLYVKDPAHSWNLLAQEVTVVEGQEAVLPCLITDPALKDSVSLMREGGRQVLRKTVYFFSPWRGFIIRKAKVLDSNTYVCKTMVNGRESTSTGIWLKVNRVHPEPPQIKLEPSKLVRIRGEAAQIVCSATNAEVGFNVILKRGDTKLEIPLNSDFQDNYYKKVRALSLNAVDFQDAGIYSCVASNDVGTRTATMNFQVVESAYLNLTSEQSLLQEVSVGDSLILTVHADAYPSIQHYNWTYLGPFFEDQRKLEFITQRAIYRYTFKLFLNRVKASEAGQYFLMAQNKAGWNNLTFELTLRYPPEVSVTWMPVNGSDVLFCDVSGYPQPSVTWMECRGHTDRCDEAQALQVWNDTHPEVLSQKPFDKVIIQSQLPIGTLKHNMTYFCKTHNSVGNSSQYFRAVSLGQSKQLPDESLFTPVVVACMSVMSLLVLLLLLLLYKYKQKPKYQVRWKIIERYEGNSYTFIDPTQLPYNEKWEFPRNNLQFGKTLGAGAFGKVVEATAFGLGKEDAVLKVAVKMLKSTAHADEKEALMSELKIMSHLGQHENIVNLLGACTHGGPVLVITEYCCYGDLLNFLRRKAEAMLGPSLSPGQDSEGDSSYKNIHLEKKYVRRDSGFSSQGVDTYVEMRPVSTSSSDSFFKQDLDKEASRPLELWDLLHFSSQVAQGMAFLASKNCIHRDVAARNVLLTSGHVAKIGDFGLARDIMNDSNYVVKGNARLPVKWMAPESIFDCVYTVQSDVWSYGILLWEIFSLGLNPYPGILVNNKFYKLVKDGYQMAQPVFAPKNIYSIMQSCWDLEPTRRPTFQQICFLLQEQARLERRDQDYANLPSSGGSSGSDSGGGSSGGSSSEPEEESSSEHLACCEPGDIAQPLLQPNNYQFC

BMDM [7] = assay: (§1) Induction of repolarization of M2 like macrophage into M1 phenotype in female C57BL/6 mouse BMDM cells assessed as decrease in Rental mRNA expression at 10 to 100 nM stimulated with mouse IL4/IL-13 for 24 hrs followed by compound addition and measured after 24 hrs by qPCR analysis; type: functional, cell-based; conditions: dose 10-100 nM
[8] = target: T2, Macrophage colony-stimulating factor 1 receptor (Mus musculus); assay: Inhibition of CSF-1R signaling pathway activation in female C57BL/6 mouse BMDM cells assessed as reduction in AKT phosphorylation at Ser473 residue at 100 nM preincubated with compounds for 4 hrs followed by M-CSF stimulation and measured after 30 mins by Western blot analysis; type: cell-based; conditions: time 4.5 hrs
BMDM [9] = assay: Induction of repolarization of M2 like macrophage into M1 phenotype in female C57BL/6 mouse BMDM cells assessed as increase in Il1 mRNA expression at 10 to 100 nM stimulated with mouse IL4/IL-13 for 24 hrs followed by compound addition and measured after 24 hrs by qPCR analysis; type: functional, cell-based; conditions: dose 10-100 nM
MC-38 [10] = assay: Antitumor activity against mouse MC38 cells allografted in C57BL/6 mouse model assessed as downregulation of Chil3l mRNA expression in tumor at 10 to 20 mg/kg, ip administered once daily for 14 days by qPCR analysis; type: functional, organism-based; conditions: dose 10-20 mg/kg, time 14.0 day
[11] = system: Colorectal cancer organoid; assay: Antitumor activity against patient derived CRC organoids assessed as reduction in number of organoids at 10 to 100 nM incubated for 72 hrs; type: functional, tissue-based; conditions: Homo sapiens, Colorectum, dose 10-100 nM
BMDM [12] = assay: as §1, with “number of M2 macrophages by measuring reduction in CD206” for “Rental mRNA”, “immunofluorescence” for “qPCR”; type: functional, cell-based; conditions: dose 10-100 nM
[13] = target: NT-3 growth factor receptor (Homo sapiens) (UniProt Q16288); assay: Inhibition of TRKC (unknown origin) at 1 uM
[14] = Apparent volume of distribution in Sprague-Dawley rat at 1 mg/kg, iv; type: ADME, organism-based; conditions: in vivo, read-out: Vz
[15] = target: T1, Macrophage colony-stimulating factor 1 receptor; assay: Binding affinity to recombinant CSF-1R (unknown origin) assessed as association rate constant by SPR analysis
MC-38 [16] = assay: Induction of apoptosis in mouse MC38 cells assessed as early apoptotic cells at 100 nM by Annexin V/PI staining based flow cytometric analysis (reference value: 1.91 %); type: functional
MC-38 [17] = assay: Antitumor activity against mouse MC38 cells allografted in C57BL/6 mouse model assessed as downregulation of Arg1 mRNA expression in tumor at 10 to 20 mg/kg, ip administered once daily for 14 days by qPCR analysis; type: functional, organism-based; conditions: dose 10-20 mg/kg, time 14.0 day
[18] = system: Colorectal cancer organoid; assay: Antitumor activity against patient derived CRC organoids assessed as change in morphology of organoids at 10 to 100 nM incubated for 72 hrs; type: functional, tissue-based; conditions: Homo sapiens, Colorectum, dose 10-100 nM
[19] = target: T2, Macrophage colony-stimulating factor 1 receptor (Mus musculus); assay: Binding affinity to CSF-1R in female C57BL/6 mouse BMDM cells assessed as decrease in protein solubility at 100 nM incubated for 1 hrs in presence of 7 to 15 % of acetone/ethanol/acetic acid mixture by SIP assay; type: cell-based
MC-38 [20] = assay: Antitumor activity against mouse MC38 cells allografted in C57BL/6 mouse model assessed as reduction in tumor weight at 20 mg/kg, ip administered once daily for 14 days relative to control; type: functional; design: scale not given: the % may be the effect or the level left; conditions: time 14 day
[21] = AUC (0 to infinity) in Sprague-Dawley rat at 10 mg/kg, po; type: ADME, organism-based; conditions: in vivo
MC-38 [22] = assay: Antitumor activity against mouse MC38 cells allografted in C57BL/6 mouse model assessed as downregulation of Mrc1 mRNA expression in tumor at 10 to 20 mg/kg, ip administered once daily for 14 days by qPCR analysis; type: functional, organism-based; conditions: dose 10-20 mg/kg, time 14.0 day

T1 sequence (P07333 whole entry): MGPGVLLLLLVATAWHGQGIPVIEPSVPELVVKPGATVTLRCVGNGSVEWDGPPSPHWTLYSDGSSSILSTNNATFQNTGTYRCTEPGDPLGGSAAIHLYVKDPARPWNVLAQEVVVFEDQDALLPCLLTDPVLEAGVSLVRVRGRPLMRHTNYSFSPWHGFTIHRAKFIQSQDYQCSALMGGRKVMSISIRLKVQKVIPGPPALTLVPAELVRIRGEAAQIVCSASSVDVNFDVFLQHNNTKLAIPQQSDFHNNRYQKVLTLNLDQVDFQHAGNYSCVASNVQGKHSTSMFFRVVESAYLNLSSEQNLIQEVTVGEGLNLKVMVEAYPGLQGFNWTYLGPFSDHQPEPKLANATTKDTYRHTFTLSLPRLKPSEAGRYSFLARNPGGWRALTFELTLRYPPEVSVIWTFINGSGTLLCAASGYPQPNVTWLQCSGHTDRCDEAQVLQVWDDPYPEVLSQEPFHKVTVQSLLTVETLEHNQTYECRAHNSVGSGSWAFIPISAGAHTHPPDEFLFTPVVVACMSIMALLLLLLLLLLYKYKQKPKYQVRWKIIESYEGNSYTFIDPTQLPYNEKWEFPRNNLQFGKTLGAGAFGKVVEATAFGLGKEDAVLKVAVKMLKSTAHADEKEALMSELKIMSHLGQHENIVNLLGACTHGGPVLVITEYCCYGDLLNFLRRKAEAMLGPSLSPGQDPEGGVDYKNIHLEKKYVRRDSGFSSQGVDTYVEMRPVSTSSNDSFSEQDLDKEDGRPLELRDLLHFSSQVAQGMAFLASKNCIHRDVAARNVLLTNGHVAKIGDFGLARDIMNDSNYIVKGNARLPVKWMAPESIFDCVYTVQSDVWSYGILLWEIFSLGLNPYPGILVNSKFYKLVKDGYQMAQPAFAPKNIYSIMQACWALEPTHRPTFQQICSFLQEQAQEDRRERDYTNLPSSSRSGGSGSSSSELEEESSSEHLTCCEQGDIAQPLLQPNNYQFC
Sequence of NT-3 growth factor receptor (Homo sapiens) (Q16288 32-839 limits assumed): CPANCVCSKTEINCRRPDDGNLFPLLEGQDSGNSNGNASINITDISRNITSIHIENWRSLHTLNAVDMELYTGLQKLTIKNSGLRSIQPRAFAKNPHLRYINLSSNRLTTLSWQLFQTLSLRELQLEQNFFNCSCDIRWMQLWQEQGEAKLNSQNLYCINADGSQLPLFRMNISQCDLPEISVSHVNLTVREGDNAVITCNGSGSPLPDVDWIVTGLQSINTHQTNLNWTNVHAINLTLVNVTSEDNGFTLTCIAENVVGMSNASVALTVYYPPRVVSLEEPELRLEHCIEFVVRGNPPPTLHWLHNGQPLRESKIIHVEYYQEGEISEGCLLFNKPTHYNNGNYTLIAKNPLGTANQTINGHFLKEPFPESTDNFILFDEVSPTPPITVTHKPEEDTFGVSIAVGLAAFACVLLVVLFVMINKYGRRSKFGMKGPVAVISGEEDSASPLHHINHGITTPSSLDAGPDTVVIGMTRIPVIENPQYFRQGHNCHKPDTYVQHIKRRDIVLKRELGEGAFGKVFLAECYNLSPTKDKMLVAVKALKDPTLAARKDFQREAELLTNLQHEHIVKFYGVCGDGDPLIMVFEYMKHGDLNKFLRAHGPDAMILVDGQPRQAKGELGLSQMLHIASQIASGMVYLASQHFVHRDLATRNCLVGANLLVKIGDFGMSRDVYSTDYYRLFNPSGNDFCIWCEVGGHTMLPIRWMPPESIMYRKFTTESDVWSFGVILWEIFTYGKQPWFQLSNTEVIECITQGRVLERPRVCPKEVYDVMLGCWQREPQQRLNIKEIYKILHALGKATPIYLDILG

Molecule `Cc1nc(NC(=O)N[C@@H]2CCCC[C@H]2O)ccc1Oc1c[nH]c2ncc(Cl)cc12` has a Tmax [1] of 1.13 h, a koff [2] of 0.00315 s⁻¹ and an Activity (MC-38 [3]) of 39%. The clearance [4] was 31.9 mL/min/kg, the Activity (BMDM [5]) was “Active” and the inhibition [6] was “Dose-dependent-effect”. The Activity (BMDM [7]) was “Active”, the inhibition [8] was “Active” and the Activity (BMDM [9]) was “Active”. The Activity (MC-38 [10]) was “Active”, the Activity [11] was “inactive” and the Activity (BMDM [12]) was “Active”. The inhibition [13] was “Active”, the Vd [14] was 3.28 L/kg and the Ka [15] was 1.07 10^5/Ms. The Activity (MC-38 [16]) was 2.03%, the Activity (MC-38 [17]) was “Active” and the Activity [18] was “inactive”. The Activity [19] was “Active”, the Activity (MC-38 [20]) was 56% and the AUC(0-inf) [21] was 4170 ng·h/mL. For the same molecule, the Activity (MC-38 [22]) was “Active”.

From ChEMBL document CHEMBL6103622 (J Med Chem, 2025)
